Laboratory results as given in PubChem BioAssay (NCI).
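Dose response: 5 concentrations. Exposure: 48 h. Format: 96-well plates. Endpoint: linear interpolation; highest concentration if not reached. GI50 marks 50% less growth. TGI: total growth inhibition.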

Assays:
Assay in all cases: inhibition of tumour cell growth, NCI panel, 48 h
NCI-H23 lung = system: NCI-H23 lung
NCI-H460 lung = system: NCI-H460 lung
NCI-H522 lung = system: NCI-H522 lung
NCI/ADR-RES ovarian = system: NCI/ADR-RES ovarian
OVCAR-3 ovarian = system: OVCAR-3 ovarian
OVCAR-4 ovarian = system: OVCAR-4 ovarian
OVCAR-5 ovarian = system: OVCAR-5 ovarian
OVCAR-8 ovarian = system: OVCAR-8 ovarian
PC-3 prostate = system: PC-3 prostate
RPMI-8226 leukemia = system: RPMI-8226 leukemia
RXF 393 renal = system: RXF 393 renal
SF-268 CNS = system: SF-268 CNS
SF-295 CNS = system: SF-295 CNS
SF-539 CNS = system: SF-539 CNS
SK-MEL-2 melanoma = system: SK-MEL-2 melanoma
SK-MEL-28 melanoma = system: SK-MEL-28 melanoma
SK-MEL-5 melanoma = system: SK-MEL-5 melanoma
SK-OV-3 ovarian = system: SK-OV-3 ovarian
SN12C renal = system: SN12C renal
SNB-19 CNS = system: SNB-19 CNS
SNB-75 CNS = system: SNB-75 CNS
SR leukemia = system: SR leukemia
SW-620 colon = system: SW-620 colon
T-47D breast = system: T-47D breast
TK-10 renal = system: TK-10 renal
U251 CNS = system: U251 CNS
UACC-257 melanoma = system: UACC-257 melanoma
UACC-62 melanoma = system: UACC-62 melanoma
UO-31 renal = system: UO-31 renal

Structure (SMILES): COc1c(B(O)O)cccc1-c1nc2c(F)cc3[nH]ncc3c2c2c1CCCC2
- GI50 (NCI-H23 lung): 1.72 µM
- TGI (NCI-H23 lung): 10.8 µM
- GI50 (NCI-H460 lung): 1.79 µM
- TGI (NCI-H460 lung): 11.9 µM
- GI50 (NCI-H522 lung): 1.98 µM
- TGI (NCI-H522 lung): 13.1 µM
- GI50 (NCI/ADR-RES ovarian): 2.44 µM
- TGI (NCI/ADR-RES ovarian): 22.1 µM
- GI50 (OVCAR-3 ovarian): 2.87 µM
- TGI (OVCAR-3 ovarian): 19.3 µM
- GI50 (OVCAR-4 ovarian): 5.49 µM
- TGI (OVCAR-4 ovarian): 58.3 µM
- GI50 (OVCAR-5 ovarian): 2.65 µM
- TGI (OVCAR-5 ovarian): 56.8 µM
- GI50 (OVCAR-8 ovarian): 2.03 µM
- TGI (OVCAR-8 ovarian): > 100 µM
- GI50 (PC-3 prostate): 1.73 µM
- TGI (PC-3 prostate): > 29 µM
- GI50 (RPMI-8226 leukemia): 0.579 µM
- TGI (RPMI-8226 leukemia): 4.59 µM
- GI50 (RXF 393 renal): 0.0459 µM
- TGI (RXF 393 renal): 1.67 µM
- GI50 (SF-268 CNS): 2.1 µM
- TGI (SF-268 CNS): 18.8 µM
- GI50 (SF-295 CNS): 2.23 µM
- TGI (SF-295 CNS): 12.8 µM
- GI50 (SF-539 CNS): 0.343 µM
- TGI (SF-539 CNS): 4.99 µM
- GI50 (SK-MEL-2 melanoma): 2.42 µM
- TGI (SK-MEL-2 melanoma): 6.8 µM
- GI50 (SK-MEL-28 melanoma): 2.95 µM
- TGI (SK-MEL-28 melanoma): 11.3 µM
- GI50 (SK-MEL-5 melanoma): 3.08 µM
- TGI (SK-MEL-5 melanoma): 11.5 µM
- GI50 (SK-OV-3 ovarian): 1.5 µM
- TGI (SK-OV-3 ovarian): 36.1 µM
- GI50 (SN12C renal): 1.24 µM
- TGI (SN12C renal): 45 µM
- GI50 (SNB-19 CNS): 1.66 µM
- TGI (SNB-19 CNS): 37.9 µM
- GI50 (SNB-75 CNS): 0.0246 µM
- TGI (SNB-75 CNS): 0.498 µM
- GI50 (SR leukemia): 2.13 µM
- TGI (SR leukemia): > 88.5 µM
- GI50 (SW-620 colon): 0.604 µM
- TGI (SW-620 colon): 14.4 µM
- GI50 (T-47D breast): 2.56 µM
- TGI (T-47D breast): 22.2 µM
- GI50 (TK-10 renal): 0.0391 µM
- TGI (TK-10 renal): > 38.4 µM
- GI50 (U251 CNS): 1.77 µM
- TGI (U251 CNS): > 44.9 µM
- GI50 (UACC-257 melanoma): 3.37 µM
- TGI (UACC-257 melanoma): 24 µM
- GI50 (UACC-62 melanoma): 1.14 µM
- TGI (UACC-62 melanoma): 9.53 µM
- GI50 (UO-31 renal): 0.405 µM
- TGI (UO-31 renal): 19.4 µM
